# Reference: US20220023289A1, “Application Of Pyrroloquinoline Quinone In Preparation Of Medicament Used For Preventing And Treating Acute Altitude Sickness And Acute Altitude Hypoxia Injury” (priority 2018, published 2022)
# How the values were obtained:
# [1] = system: rats exposed to acute altitude hypoxia; test: Liver ATP and glycogen in rats exposed to acute altitude hypoxia; type: in vivo, Wistar rat
# Experimental: Determination of adenosine triphosphate (ATP): Perform enzyme-linked immunosorbent assay by double-antibody one-step sandwich method. To the coated microwells pre-coated with rat adenosine triphosphate (ATP) capture antibody, add in sequence the specimens, standard, and HRP-labeled detection antibody, and then incubate and wash thoroughly. Use a substrate TMB for color development, TMB is converted into blue under the catalysis of peroxidase and converted into the final yellow color under the action of acid. The color intensity is positively correlated with the rat adenosine triphosphate (ATP) in the sample. […] Determination of liver glycogen (GC): Perform enzyme-linked immunosorbent assay by double-antibody one-step sandwich method. To the coated microwells pre-coated with rat liver glycogen (GC) capture antibody, add in sequence the specimens, standard, and HRP-labeled detection antibody, and then incubate and wash thoroughly. Use a substrate TMB for color development, TMB is converted into blue under the catalysis of peroxidase and converted into the final yellow color under the action of acid. The color intensity is positively correlated with the rat liver glycogen (GC) in the sample.
# [2] = system: rats exposed to acute altitude hypoxia; test: Blood glucose in rats exposed to acute altitude hypoxia (6000 m, 8 h, after 7 days intragastric); type: in vivo, Wistar rat; settings: for Blood sugar: 0.11 g/kg
# Experimental: (§1) Select healthy Wistar rats weight 160-200 g, half female and half male. After feeding for 3 days, these Wistar rats are randomly divided into ten groups according to their body weight, each group has 16±2 rats. The groups are divided as follows: five groups of the hypoxic exposure drug test group, respectively, are given 0.91 mg/kg, 1.83 mg/kg, 3.66 mg/kg, 7.31 mg/kg, and 14.63 mg/kg drugs. […] After continuous intragastric administration for 7 days, the animals in the hypoxic exposure group are simultaneously put into the decompression and hypoxia compound experimental chamber, the hatch is closed, and the pressure is reduced at a speed of 10 m/s. After being raised to an altitude of 6000 m and maintained for 8 hours, the speed in 10 m/s drops is reduced to normal altitude, open the hatch, and then take out the animal, collect blood samples (after standing for 1 hour, the supernatant is centrifuged and stored at −20° C.), and liver tissue samples. Detection indicator includes body weight, serum blood glucose, ATP, lactic acid, endothelin, nitric oxide, SOD, CO, MDA related to oxidative stress, and total protein, albumin, triglycerides, total cholesterol, high-density lipoprotein cholesterol, low-density lipoprotein cholesterol, glutamic pyruvic transaminase, total bilirubin, gluamic oxalacetic transaminase, serum urea nitrogen, creatinine, uric acid, lactate dehydrogenase, creatine kinase, α-hydroxybutyrate dehydrogenase; liver ATP, hepatic glycogen. Except that the formal oxygen control animal group is not put into the decompression and hypoxia compound experimental chamber, other experimental conditions and detection indicators are the same.
# (§2) Measure blood glucose, total protein, albumin, triglycerides, total cholesterol, high-density lipoprotein cholesterol, low-density lipoprotein cholesterol, glutamic-pyruvic transaminase, total bilirubin, glutamic oxalacetic transaminase, serum urea nitrogen, creatinine, uric acid, lactate dehydrogenase, creatine kinase, α-hydroxybutyrate dehydrogenase, blood homocysteine by using an automatic blood biochemical analyzer.
# [3] = Body weight of mice before closed hypoxia tolerance test; settings: 0.16 g/kg
# [4] = Rat body weight before the acute decompression hypoxia experiment (intragastric 7 days)
# Experimental: as §1
# [5] = system: rats exposed to acute altitude hypoxia; test: Lipid metabolism in rats exposed to acute altitude hypoxia; type: in vivo, Wistar rat
# Experimental: as §1, §2
# [6] = system: rats with acute altitude hypoxia injury; test: Serum energy metabolism indexes (ATP, lactic acid) in rats with acute altitude hypoxia injury; type: in vivo, Wistar rat; settings: for serum Lactic acid: 0.11 g/kg
# Experimental: Determination of adenosine triphosphate (ATP): Perform enzyme-linked immunosorbent assay by double-antibody one-step sandwich method. To the coated microwells pre-coated with rat adenosine triphosphate (ATP) capture antibody, add in sequence the specimens, standard, and HRP-labeled detection antibody, and then incubate and wash thoroughly. Use a substrate TMB for color development, TMB is converted into blue under the catalysis of peroxidase and converted into the final yellow color under the action of acid. The color intensity is positively correlated with the rat adenosine triphosphate (ATP) in the sample. […] Determination of lactic acid (LC): Perform enzyme-linked immunosorbent assay by double-antibody one-step sandwich method. To the coated microwells pre-coated with rat lactic acid (LC) capture antibody, add in sequence the specimens, standard, and HRP-labeled detection antibody, and then incubate and wash thoroughly. Use a substrate TMB for color development. TMB is converted into blue under the catalysis of peroxidase and converted into the final yellow color under the action of acid. The color intensity is positively correlated with the rat lactic acid (LC) in the sample.
# [7] = system: rats exposed to acute altitude hypoxia; test: Myocardial enzyme activity in rats exposed to acute altitude hypoxia; type: in vivo, Wistar rat; settings: for Creatine Kinase / Lactate dehydrogenase / α-hydroxybutyrate dehydrogenase: 0.11 g/kg
# Experimental: as §1, §2
# [8] = female rats, hypoxia, 0.11 g/kg
# [9] = female rats, normoxia, 0.11 g/kg
smiles,measurement,setting,value
"CC(=O)Nc1nnc(S(N)(=O)=O)s1 [Acetazolamide, reference compound]",effect on liver ATP and glycogen content,"[1]; female rats, after hypoxia exposure and normoxia",no significant effects
same,liver Glycogen,[1]; [8],3.71 ± 0.27 ng/mL
same,liver ATP,[1]; [9],1.39 ± 0.54 µg/mL
same,liver Glycogen,[1]; [9],2.75 ± 1.13 ng/mL
same,effect on liver ATP and glycogen content,[1]; male rats,no significant effects
same,liver Glycogen,"[1]; male rats, hypoxia, 0.11 g/kg",2.14 ± 0.21 ng/mL
same,effect on blood glucose,[2]; acute hypoxia exposed female rats,no significant effects
same,Blood sugar,"[2]; female rats, hypoxia",7.63 ± 0.76 mmol/L
same,effect on blood glucose,"[2]; female rats, normoxia",lowering the blood glucose
same,Blood sugar,"[2]; female rats, normoxia",7.18 ± 0.39 mmol/L
same,effect on blood glucose level,[2]; male rats,no significant effects
same,Blood sugar,"[2]; male rats, hypoxia",8.87 ± 1.24 mmol/L
same,weight 1 day,[3]; female mice,20.27 ± 0.90 g
same,weight 3 days,[3]; female mice,20.88 ± 1.50 g
same,weight 1 day,[3]; male mice,15.41 ± 1.08 g
same,weight 3 days,[3]; male mice,15.88 ± 1.24 g
same,rat body weight Female 1 day,[4]; 0.11 g/kg,153.4 ± 6.1 g
same,rat body weight Female 7 days,[4]; 0.11 g/kg,163.3 ± 6.76 g
same,rat body weight Male 1 day,[4]; 0.11 g/kg,172.4 ± 6.8 g
same,rat body weight Male 7 days,[4]; 0.11 g/kg,189.1 ± 11.8 g
same,effect on body weight,"[4]; female rats, 7 days",no significant effects
same,effect on weight,"[4]; male rats, 7 days",decreased
same,High density lipoprotein cholesterol,[5]; [8],1.55 ± 0.19 mmol/L
same,Low density lipoprotein cholesterol,[5]; [8],0.17 ± 0.04 mmol/L
same,Total cholesterol,[5]; [8],2.02 ± 0.20 mmol/L
same,effect on low-density lipoprotein cholesterol,"[5]; female rats, normoxia",no significant effects
same,effect on total cholesterol and high-density lipoprotein cholesterol,"[5]; female rats, normoxia",can increase
same,High density lipoprotein cholesterol,[5]; [9],1.67 ± 0.07 mmol/L
same,Low density lipoprotein cholesterol,[5]; [9],0.16 ± 0.02 mmol/L
same,Total cholesterol,[5]; [9],2.14 ± 0.10 mmol/L
same,"effect on total cholesterol, low-density and high-density lipoprotein cholesterol",[5]; hypoxia exposed female rats,increasing
same,"effect on total, high-density and low-density lipoprotein cholesterol",[5]; male rats,no significant effect
same,effect on triglycerides,[5]; male rats exposed to hypoxia,is not found
same,High density lipoprotein cholesterol,"[5]; male rats, hypoxia, 0.11 g/kg",1.39 ± 0.14 mmol/L
same,Low density lipoprotein cholesterol,"[5]; male rats, hypoxia, 0.11 g/kg",0.21 ± 0.05 mmol/L
same,Total cholesterol,"[5]; male rats, hypoxia, 0.11 g/kg",1.88 ± 0.21 mmol/L
same,Triglycerides,"[5]; male rats, hypoxia, 0.11 g/kg",1.05 ± 0.49 mmol/L
same,serum Lactic acid,"[6]; female rats, hypoxia",132.16 ± 10.42 ng/L
same,effect on serum ATP and lactic acid content,"[6]; female rats, last sentence of b195 (normoxia per Table 37)",reducing
same,serum Lactic acid,"[6]; female rats, normoxia",100.54 ± 7.13 ng/L
same,effect on serum ATP and lactic acid content,[6]; hypoxia exposed female rats,no significant effects
same,effect on serum ATP,[6]; male rats,no significant effects
same,effect on serum lactic acid content,[6]; male rats,reducing
same,serum Lactic acid,"[6]; male rats, hypoxia",161.46 ± 6.94 ng/L
same,Creatine Kinase,"[7]; female rats, hypoxia",503.40 ± 137.62 U/L
same,Lactate dehydrogenase,"[7]; female rats, hypoxia",534.00 ± 179.23 U/L
same,α-hydroxybutyrate dehydrogenase,"[7]; female rats, hypoxia",230.20 ± 75.49 U/L
same,"effect on serum lactic dehydrogenase, creatine kinase, α-hydroxybutyrate dehydrogenase activity","[7]; female rats, normoxia",no significant effects
same,Creatine Kinase,"[7]; female rats, normoxia",697.67 ± 222.15 U/L
same,Lactate dehydrogenase,"[7]; female rats, normoxia",998.67 ± 285.56 U/L
same,α-hydroxybutyrate dehydrogenase,"[7]; female rats, normoxia",430.33 ± 134.10 U/L
same,"effect on serum lactic dehydrogenase, creatine kinase, α-hydroxybutyrate dehydrogenase activity",[7]; hypoxia exposed female rats,no significant effects
same,"effect on serum lactate dehydrogenase, creatine kinase, α-hydroxybutyrate dehydrogenase",[7]; hypoxia exposed male rats,has not been found
same,Creatine Kinase,"[7]; male rats, hypoxia",352.43 ± 138.11 U/L
same,Lactate dehydrogenase,"[7]; male rats, hypoxia",303.86 ± 174.67 U/L
same,α-hydroxybutyrate dehydrogenase,"[7]; male rats, hypoxia",126.29 ± 67.51 U/L
